Here are results for one compound from publication PMC8766756, “Insights on Cancer Cell Inhibition, Subcellular Activities, and Kinase Profile of Phenylacetamides Pending 1H-Imidazol-5-One Variants” (Frontiers in Pharmacology, 2022).

Molecules are shown by their SMILES. Like-named read-outs stand apart in the source and are kept apart here.

For one series, the system named is HCT116 cells. The series can be described thus: Cytotoxic assay in presence of antioxidant N-acetylcysteine. The format is cell-based. The conditions noted are these: 48 h, MTT. The source says: Oxidative stress expressed as the reactive oxygen species (ROS) level is an important marker in cell death under the effect of certain cytotoxic drugs. Elevation of ROS may occur as a direct mechanism of some drugs such as Adriamycin ([Kim et al., 2019]) and trans-cinnamaldehyde ([Afanas’ev, 2011]; [Ka et al., 2003]) (safe covalent natural compound) or indirectly by the modulation of certain cellular contents ([Teppo et al., 2017]; [Perillo et al., 2020]). The involvement of ROS elevation and oxidative stress in the cytotoxic activities of KIM-161 on HCT116 was assessed. In this assay, the antioxidant N-acetylcysteine (NAC) was added at a very high concentration (5 mM) to check if it reverses the cytotoxic activities of KIM-161 on HCT116.
FIGURE 10 Effect of antioxidant pretreatment on viability of HCT116 treated with KIM-161. […] Cell viability was expressed as a percentage of vehicle control and was measured by the MTT assay (average of two independent experiments). Statistical significance was determined by two-way ANOVA using Šídák’s multiple comparisons test. * = p < 0.05; *** = p ≤ 0.001; **** = p < 0.0001.
HCT116 cells were seeded at a density of 5 × 10^4 cells/well in 96-well plates and left overnight to adhere. […] Cell viability was expressed as a percentage of the vehicle control (1% v/v ethanol) and was assessed using the MTT assay (data are expressed as mean ± SEM). […]

Series [1] concerns PC3 prostate cancer cell line. Description: SRB cytotoxicity assay. The format is cell-based, human. The conditions noted are these: 72 h, read-out: IC50 ± SEM PC3. The procedure:
The compounds were screened for their anticancer activities against a variety of cancer cell lines. The cytotoxic effect of the compounds was evaluated using the sulforhodamine B (SRB) cytotoxicity assay for breast cancer line (MCF7) and prostate cancer cell line (PC3) ([Vichai and Kirtikara, 2006]; [Rana et al., 2021]) and 3-(4,5-dimethylthiazol-2-yl)-2,5-diphenyl-2H-tetrazolium bromide (MTT) assay for the colon cancer (HCT116) cell lines ([El-Huneidi et al., 2020]). The CellTiter-Blue® cell viability assay was performed on the various leukemia cell lines, HL60, NB4, and KG1a cells ([Akter et al., 2019]). The IC50 values are illustrated in Table 1.
MCF7 (breast), PC3 (prostate), and HCT116 (colon) cancer cell lines were obtained from ATCC, Manassas, VA, USA. Cells were grown in Roswell Park Memorial Institute-1640 (RPMI-1640) medium (Thermo Fisher Scientific, Inc., Waltham, MA, USA), supplemented with 10% heat inactivated fetal bovine serum (FBS), 50 units/mL of penicillin, and […] of streptomycin and maintained at 37°C in a humidified atmosphere containing 5% CO2. The cells were maintained as “monolayer culture” by serial subculturing.
Exponentially growing MCF7 and PC3 cells were collected using 0.25% Trypsin-EDTA and were then seeded in 96-well plates at a density of 1,000–2,000 cells/well in 10% FBS and penicillin/streptomycin supplemented RPMI-1640 medium. After 24 h, the cells were treated with different concentrations of the test compounds and incubated for 72 h at 37°C in a humidified atmosphere containing 5% CO2. Next, the cells were fixed by trichloroacetic acid (TCA) (10% final concentration in wells) directly to the wells and incubated for 1 h at 4°C, then the cells were washed with distilled water five times to remove excess TCA, media, serum proteins, and metabolites, followed by air drying. After that, the fixed cells were stained with 0.4% SRB dissolved in 1% acetic acid for 10 min at room temperature, and excess stain was removed by quickly rinsing with 1% acetic acid. The residual acetic acid was removed completely by air drying the plates for 24 h, and the dye was solubilized with Tris buffer (pH = 7.4, 10 mM) for 5 min on a shaker at 1,600 rpm. The optical density of each well was measured spectrophotometrically at 564 nm with an ELISA microplate reader (ChroMate-4300, FL, USA). The IC50 values were calculated according to the equation for Boltzman sigmoidal concentration–response curve using the nonlinear regression fitting models (GraphPad®, Prism Version 5).
Background: Sulforhodamine B stains cellular protein and so reports cell mass.

Series [2] can be described thus: Binding to mouse plasma proteins (equilibrium dialysis). The format is in vitro ADME. The note with it: pH 7.4, CD-1 mouse plasma, equilibrium dialysis 22 h, read-out: Mouse plasma protein binding (% free at 37°C). The procedure:
The equilibrium dialysis method for determining plasma protein binding was performed as previously described using 96-well dialyzer plates with a molecular weight cutoff of 5K (Harvard Apparatus, Holliston, MA) and a dual-plate rotator set to maximum speed (Harvard Apparatus, Holliston, MA) located in a 37°C incubator with a 10% CO2 atmospheric environment. The assays were run in triplicate. KIM-161 was added to CD-1 mouse plasma (Innovative Research, Novi, MI, sodium heparin added as anticoagulant; pH adjusted to 7.4 with 2N HCl on the day of use) in DMSO (final DMSO concentration 0.4%) to give a 10 µM final concentration. The drug/plasma mixture and buffer (Dulbecco's PBS 1X without calcium and magnesium, Mediatech, Inc., Herndon, VA) were placed in their respective sides; the wells were capped; and the plate was placed in the rotator and allowed to dialyze for 22 h. Following dialysis, aliquots of the buffer and plasma mixture were removed and mixed with aliquots of the opposite matrix in 96-well deep plates. The concentrations of the analytes from each side of the dialysis plate were determined by LC/MS/MS on a Waters Xevo TQ instrument as described above using positive electrospray ionization. […] The fraction unbound was calculated by dividing the drug concentration in the buffer side of the dialysis plate by the drug concentration in the plasma side.

For `COc1ccc(/C=C2\N=C(C)N(c3ccc(CC(=O)NCc4ccccc4)cc3)C2=O)cc1` [Compound 4c, (Z)-N-Benzyl-2-(4-(4-(4-methoxybenzylidene)-2-methyl-5-oxo-4,5-dihydro-1H-imidazol-1-yl)phenyl)acetamide], the “change of cytotoxic effect by NAC addition” value in the series with HCT116 cells (HCT116, KIM-161 0.5 µM, NAC 5 mM pretreatment 1 h) was “slightly altered”; with HCT116 cells (HCT116, increasing KIM-161 concentration (1.0, 5.0 µM), NAC 5 mM), “higher involvement of this factor in the anticancer effect”. The IC50 in series [1] was 2.14 ± 0.34 µM; in series [1] (Homo sapiens), 2.13 µM. Also, in series [2], the fraction unbound at 22 h, 10 µM came to 0.05.

Usually IC50 stands for the point on the concentration scale where inhibition reaches its midpoint.
